According to ChEMBL document CHEMBL1143799, “Synthesis and primary cytotoxicity evaluation of new imidazo[2,1-b]thiazole derivatives” (2007):

Columns and labels:
Format in all cases: functional
MOLT-4 = test: Growth inhibition of human MOLT4 cells after 48 hrs by SRB protein assay; conditions: MOLT-4, 48 h
RPMI-8226 = test: Growth inhibition of human RPMI8226 cells after 48 hrs by SRB protein assay; conditions: RPMI-8226, 48 h
EKVX = test: Growth inhibition of human EKVX cells after 48 hrs by SRB protein assay
HOP-62 = test: Growth inhibition of human HOP62 cells after 48 hrs by SRB protein assay; conditions: HOP-62, 48 h
HOP-92 = test: Growth inhibition of human HOP92 cells after 48 hrs by SRB protein assay; conditions: HOP-92, 48 h
NCI-H23 = test: Growth inhibition of human NCI-H23 cells after 48 hrs by SRB protein assay; conditions: NCI-H23, 48 h
NCI-H322M = test: Growth inhibition of human NCI-H322M cells after 48 hrs by SRB protein assay
NCI-H460 = test: Growth inhibition of human NCI-H460 cells after 48 hrs by SRB protein assay; conditions: NCI-H460, 48 h
NCI-H522 = test: Growth inhibition of human NCI-H522 cells after 48 hrs by SRB protein assay; conditions: NCI-H522, 48 h
COLO 205 = test: Growth inhibition of human COLO205 cells after 48 hrs by SRB protein assay; conditions: COLO 205, 48 h
HCT-116 = test: Growth inhibition of human HCT116 cells after 48 hrs by SRB protein assay; conditions: HCT-116, 48 h
HCT-15 = test: Growth inhibition of human HCT15 cells after 48 hrs by SRB protein assay; conditions: HCT-15, 48 h
KM12 = test: Growth inhibition of human KM12 cells after 48 hrs by SRB protein assay; conditions: KM12, 48 h
SW-620 = test: Growth inhibition of human SW620 cells after 48 hrs by SRB protein assay; conditions: SW-620, 48 h
SF-268 = test: Growth inhibition of human SF268 cells after 48 hrs by SRB protein assay; conditions: SF-268, 48 h
SF-295 = test: Growth inhibition of human SF295 cells after 48 hrs by SRB protein assay; conditions: SF-295, 48 h
SF-539 = test: Growth inhibition of human SF539 cells after 48 hrs by SRB protein assay; conditions: SF-539, 48 h
SNB-19 = test: Growth inhibition of human SNB19 cells after 48 hrs by SRB protein assay; conditions: SNB-19, 48 h
SNB-75 = test: Growth inhibition of human SNB75 cells after 48 hrs by SRB protein assay; conditions: SNB-75, 48 h
U-251 = test: Growth inhibition human U251 of cells after 48 hrs by SRB protein assay; conditions: U-251, 48 h
LOX IMVI = test: Growth inhibition of human LOX IMVI cells after 48 hrs by SRB protein assay
M14 = test: Growth inhibition of human M14 cells after 48 hrs by SRB protein assay; conditions: M14, 48 h
SK-MEL-2 = test: Growth inhibition of human SK-MEL-2 cells after 48 hrs by SRB protein assay; conditions: SK-MEL-2, 48 h
SK-MEL-28 = test: Growth inhibition of human SK-MEL-28 cells after 48 hrs by SRB protein assay; conditions: SK-MEL-28, 48 h
UACC-257 = test: Growth inhibition of human UACC257 cells after 48 hrs by SRB protein assay; conditions: UACC-257, 48 h
UACC-62 = test: Growth inhibition of human UACC62 cells after 48 hrs by SRB protein assay; conditions: UACC-62, 48 h
IGROV-1 = test: Growth inhibition of human IGROV1 cells after 48 hrs by SRB protein assay; conditions: IGROV-1, 48 h
OVCAR-3 = test: Growth inhibition of human OVCAR-3 cells after 48 hrs by SRB protein assay; conditions: OVCAR-3, 48 h
SK-OV-3 = test: Growth inhibition of human SK-OV-3 cells after 48 hrs by SRB protein assay; conditions: SK-OV-3, 48 h
[1] = Growth inhibition of human 786O cells after 48 hrs by SRB protein assay; conditions: 786-0, 48 h
ACHN = test: Growth inhibition of human ACHN cells after 48 hrs by SRB protein assay
RXF 393 = test: Growth inhibition of human RXF393 cells after 48 hrs by SRB protein assay; conditions: RXF 393, 48 h
SN12C = test: Growth inhibition of human SN12C cells after 48 hrs by SRB protein assay
UO-31 = test: Growth inhibition of human UO31 cells after 48 hrs by SRB protein assay; conditions: UO-31, 48 h
MCF7 = test: Growth inhibition of human MCF7 cells after 48 hrs by SRB protein assay; conditions: MCF7, 48 h
MDA-MB-231 = test: Growth inhibition of MDA-MB-231 cells after 48 hrs by SRB protein assay; conditions: Homo sapiens, MDA-MB-231, 48 h
Hs-578T = test: Growth inhibition of human HS578T cells after 48 hrs by SRB protein assay
MDA-MB-435 = test: Growth inhibition of human MDA-MB-435 cells after 48 hrs by SRB protein assay; conditions: MDA-MB-435, 48 h
BT-549 = test: Growth inhibition of human BT549 cells after 48 hrs by SRB protein assay; conditions: BT-549, 48 h

## O=C(Cc1csc2nc(-c3ccc(Br)cc3)cn12)N/N=C/c1ccccc1
MOLT-4
  GI50: 6.76 µM
MOLT-4; read-out: Log TGI (converted)
  TGI: 37.2 µM
RPMI-8226
  GI50: 7.41 µM
RPMI-8226; read-out: Log TGI (converted)
  TGI: > 100 µM
EKVX
  GI50: 6.92 µM
EKVX; read-out: Log TGI (converted)
  TGI: 52.5 µM
HOP-62
  GI50: 15.1 µM
HOP-62; read-out: Log TGI (converted)
  TGI: 39.8 µM
HOP-92
  GI50: 12.3 µM
HOP-92; read-out: Log TGI (converted)
  TGI: 37.2 µM
NCI-H23
  GI50: 12.6 µM
NCI-H23; read-out: Log TGI (converted)
  TGI: 61.7 µM
NCI-H322M
  GI50: 19.1 µM
NCI-H322M; read-out: Log TGI (converted)
  TGI: 93.3 µM
NCI-H460
  GI50: 52.5 µM
NCI-H460; read-out: Log TGI (converted)
  TGI: > 100 µM
NCI-H522
  GI50: 14.1 µM
NCI-H522; read-out: Log TGI (converted)
  TGI: 60.3 µM
COLO 205
  GI50: 66.1 µM
COLO 205; read-out: Log TGI (converted)
  TGI: > 100 µM
HCT-116
  GI50: 9.33 µM
HCT-116; read-out: Log TGI (converted)
  TGI: 21.4 µM
HCT-15
  GI50: 16.2 µM
HCT-15; read-out: Log TGI (converted)
  TGI: > 100 µM
KM12
  GI50: 26.3 µM
KM12; read-out: Log TGI (converted)
  TGI: > 100 µM
SW-620
  GI50: 18.6 µM
SW-620; read-out: Log TGI (converted)
  TGI: 63.1 µM
SF-268
  GI50: > 100 µM
SF-268; read-out: Log TGI (converted)
  TGI: > 100 µM
SF-295
  GI50: 12 µM
SF-295; read-out: Log TGI (converted)
  TGI: 37.2 µM
SF-539
  GI50: 16.2 µM
SF-539; read-out: Log TGI (converted)
  TGI: 39.8 µM
SNB-19
  GI50: 43.7 µM
SNB-19; read-out: Log TGI (converted)
  TGI: > 100 µM
SNB-75
  GI50: 31.6 µM
SNB-75; read-out: Log TGI (converted)
  TGI: 89.1 µM
U-251
  GI50: 12.9 µM
U-251; read-out: Log TGI (converted)
  TGI: 32.4 µM
LOX IMVI
  GI50: 12.3 µM
LOX IMVI; read-out: Log TGI (converted)
  TGI: 91.2 µM
M14
  GI50: 20.9 µM
M14; read-out: Log TGI (converted)
  TGI: > 100 µM
SK-MEL-2
  GI50: 33.1 µM
SK-MEL-2; read-out: Log TGI (converted)
  TGI: > 100 µM
SK-MEL-28
  GI50: > 100 µM
SK-MEL-28; read-out: Log TGI (converted)
  TGI: > 100 µM
UACC-257
  GI50: 6.17 µM
UACC-257; read-out: Log TGI (converted)
  TGI: 31.6 µM
UACC-62
  GI50: 11.5 µM
UACC-62; read-out: Log TGI (converted)
  TGI: 28.2 µM
IGROV-1
  GI50: 11.2 µM
IGROV-1; read-out: Log TGI (converted)
  TGI: 32.4 µM
OVCAR-3
  GI50: 24 µM
OVCAR-3; read-out: Log TGI (converted)
  TGI: 46.8 µM
SK-OV-3
  GI50: 66.1 µM
SK-OV-3; read-out: Log TGI (converted)
  TGI: > 100 µM
[1]
  GI50: 27.5 µM
[1]; read-out: Log TGI (converted)
  TGI: > 100 µM
ACHN
  GI50: 10.7 µM
ACHN; read-out: Log TGI (converted)
  TGI: 25.7 µM
RXF 393
  GI50: 14.5 µM
RXF 393; read-out: Log TGI (converted)
  TGI: 38.9 µM
SN12C
  GI50: 13.2 µM
SN12C; read-out: Log TGI (converted)
  TGI: 39.8 µM
UO-31
  GI50: 57.5 µM
UO-31; read-out: Log TGI (converted)
  TGI: > 100 µM
MCF7
  GI50: 75.9 µM
MCF7; read-out: Log TGI (converted)
  TGI: > 100 µM
MDA-MB-231
  GI50: 12.9 µM
MDA-MB-231; read-out: Log TGI (converted)
  TGI: 57.5 µM
Hs-578T
  GI50: 16.2 µM
Hs-578T; read-out: Log TGI (converted)
  TGI: 51.3 µM
MDA-MB-435
  GI50: 12 µM
MDA-MB-435; read-out: Log TGI (converted)
  TGI: 51.3 µM
BT-549
  GI50: 12.9 µM
BT-549; read-out: Log TGI (converted)
  TGI: 49 µM
